{
  "source": "patent US20110190503A1",
  "about": "“Thiazolopyridin-2-yloxy-phenyl and thiazolopyrazin-2-yloxy-phenyl amines as modulators of leukotriene A4 hydrolase” (Janssen Pharmaceutical NV, priority 2008, published 2011)",
  "key": {"[1]": {"system": "airway hyperresponsiveness", "settings": "primate model; cited from earlier work"}, "colitis symptoms": {"system": "colitis symptoms", "settings": "eight weeks of treatment, cotton top tamarins; cited from earlier work"}, "[2]": {"system": "ionophore-induced LTB4 production", "settings": "oral administration; cited from earlier work"}, "[3]": {"system": "ionophore-induced LTB4 production", "settings": "oral administration; cited from earlier work", "remark": "listed apart in the source"}, "[4]": {"system": "LTB4 production by calcium ionophore-stimulated human blood", "assay": "LTB4 production by calcium ionophore-stimulated human blood for LTA4H inhibitor activity", "format": "cell-based", "settings": "human blood diluted 1:1, calcium ionophore A23187, LTB4 by immunoassay; n in parentheses; read-out: IC50", "experimental": "Assay 3: LTB4 Production by Calcium Ionophore-Stimulated Human Blood for LTA4H Inhibitor Activity\nHuman blood was collected from healthy donors in heparin-containing syringes. The blood was diluted 1:1 with RPMI-1640 medium, and 200-μL aliquots of the diluted blood were added to wells of a 96-well microtiter plate. LTA4H inhibitor test compounds were prepared at different concentrations in RPMI-1640 medium containing 1% DMSO, and 20 μL of each test solution was added to a well containing diluted whole blood (final DMSO concentration of 0.1%). After the microtiter plate contents were incubated for 15 min at 37° C. in a humidified incubator, calcium ionophore A23187 (Sigma Chemical Co., St. Louis, Mo.) was added to each sample well (final concentration=7 μg/mL). The incubation was continued under the same conditions for an additional 30 min to allow LTB4 formation. The reaction was terminated by centrifugation (833×g, 10 min at 4° C.), and supernatants were analyzed for LTB4 by a commercially available enzyme-linked immunoassay (Cayman Chemical Co.) according to the manufacturer's instructions. Positive controls, under essentially identical conditions but without addition of an inhibitor compound, and negative unstimulated controls, containing all assay components except calcium ionophore, were routinely run in each experiment. IC50 values for compounds tested in this assay were determined by nonlinear regression of the activity data at different compound concentrations using Graphpad Prism 4.0, one site binding competition, and are presented in Table 3. The number of determinations made is indicated in parentheses following each value."}, "[5]": {"target": "T1, recombinant human LTA4 hydrolase (rhLTA4H) (Homo sapiens, UniProt P09960)", "T1 construct": "made in house; host or cells: Spodoptera frugiperda (Sf-9) cells, recombinant baculovirus (pFastBac1)", "T1 sequence (P09960 1-611)": "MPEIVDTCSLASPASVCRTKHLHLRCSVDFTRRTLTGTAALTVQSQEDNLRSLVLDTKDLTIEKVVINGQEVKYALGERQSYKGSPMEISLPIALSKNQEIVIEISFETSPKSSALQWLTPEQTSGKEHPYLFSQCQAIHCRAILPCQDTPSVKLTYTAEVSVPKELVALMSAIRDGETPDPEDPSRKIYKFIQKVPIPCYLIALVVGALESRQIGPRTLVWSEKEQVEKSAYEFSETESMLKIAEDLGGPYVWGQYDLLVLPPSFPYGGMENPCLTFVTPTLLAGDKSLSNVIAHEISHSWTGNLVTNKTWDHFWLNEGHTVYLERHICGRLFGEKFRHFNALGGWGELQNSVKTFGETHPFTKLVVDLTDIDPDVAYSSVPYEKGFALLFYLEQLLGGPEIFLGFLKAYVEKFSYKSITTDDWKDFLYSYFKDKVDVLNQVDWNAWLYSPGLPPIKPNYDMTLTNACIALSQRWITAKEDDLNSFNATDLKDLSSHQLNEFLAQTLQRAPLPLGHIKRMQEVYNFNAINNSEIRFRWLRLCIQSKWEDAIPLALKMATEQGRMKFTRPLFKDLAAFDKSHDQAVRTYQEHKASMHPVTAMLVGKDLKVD", "assay": "Recombinant human LTA4 hydrolase assay for LTA4 hydrolase inhibitor activity", "format": "biochemical", "settings": "rhLTA4H, LTA4 substrate, LTB4 by immunoassay; single determination or average; read-out: IC50", "in_short": "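LTB4 formed from LTA4 substrate (free acid from the methyl ester) was quantified by enzyme immunoassay after a 30 min rt reaction. Enzyme was 10 ng Sf-9-expressed human LTA4 hydrolase, pre-incubated 10 min with compound.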"}, "[6]": {"system": "LTB4 production by calcium ionophore-stimulated murine blood", "assay": "LTB4 production by calcium ionophore-stimulated murine blood for LTA4H inhibitor activity", "format": "cell-based, CD-1 mice", "settings": "Mus musculus; murine blood diluted 1 in 15, calcium ionophore A23187, LTB4 by immunoassay; read-out: IC50", "in_short": "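LTB4 quantified by EIA in supernatants after murine (CD-1) heparinized whole blood was exposed to compound for 15 min, then to 7 μg/mL (final) A23187 for 30 min, all at 37° C. Reported values: single runs or means; three or more runs include SD.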"}, "[7]": {"settings": "severe asthmatics; cited from earlier work"}, "pruritus": {"system": "pruritus", "settings": "Sjogren-Larsson syndrome patients; cited from earlier work"}, "atopic dermatitis": {"system": "atopic dermatitis", "settings": "small, open-label clinical trials; cited from earlier work"}, "[8]": {"system": "bronchial hyperresponsiveness", "settings": "human asthma; cited from earlier work"}, "[9]": {"system": "ex vivo stimulated LTB4 production", "assay": "Murine arachidonic acid-induced inflammation model: ex vivo stimulated LTB4 production (% Inh. LTB4)", "settings": "Mus musculus; female Balb/c mice, 30 mg/kg oral gavage; blood taken 3 h after arachidonic acid, ex vivo A23187 stimulation; number of determinations in parentheses", "experimental": "(§1) Assay 4: Murine Arachidonic Acid-Induced Inflammation Model\n(§2) LTA4H inhibitor compounds of the present invention were dissolved in 20% cyclodextran/H2O at a concentration of 3 mg/mL. The solutions were administered by oral gavage to female Balb/c mice weighing approximately 20 grams each (0.2 mL per mouse, 30 mg of LTA4H inhibitor compound per kg). Sixty minutes after being administered an LTA4 inhibitor, each mouse received topical application of 20 μL of arachidonic acid (100 mg/mL in acetone) to the left ear and 20 μL of acetone only to the right ear. After 3 h, the mice were sacrificed, blood was withdrawn in heparinized syringes, and 8 mm ear biopsies were taken. Ear biopsies were weighed to determine edema and then frozen at −80° C. until needed for determination of neutrophil influx.\nOne hundred-microliter aliquots of heparinized blood were added to wells of a microtiter plate, along with equal volumes of RPMI-1640 medium, and calcium ionophore A23187 was added to each sample well (final concentration=[…]). The microtiter plate contents were incubated for 30 min at 37° C. in a humidified incubator. The reaction was terminated by centrifugation (833×g, 10 min at 4° C.). Supernatants were analyzed for LTB4 by a commercially available enzyme-linked immunoassay (Cayman Chemical Co.) in accordance with the manufacturer's instructions. The percent inhibition of ex vivo stimulated LTB4 production (% Inh. LTB4) was determined by comparison to animals treated identically except that the solution administered by oral gavage was devoid of inhibitor compound.\n(§3) The number of determinations is indicated in parentheses following each value"}, "neutrophil influx": {"system": "neutrophil influx", "assay": "Murine arachidonic acid-induced inflammation model: neutrophil influx in ear, myeloperoxidase activity (% Inh. MPO)", "format": "in vivo", "settings": "Mus musculus, female Balb/c mice, 30 mg/kg oral gavage, ear biopsy 3 h after topical arachidonic acid, number of determinations in parentheses", "experimental": "as §1, §2\nNeutrophil influx was quantified by measuring the activity of myeloperoxidase (MPO), a neutrophil-specific enzyme. The ear biopsies were homogenized in 0.5 mL extraction buffer (0.3 M sucrose, 0.22% (w/v) hexadecyl trimethyl ammonium bromide (CTAB), and 2.5 mM citrate prepared from 0.5 M citrate stock solution (pH 5.0)), in a Fast-Prep-24 (MP™) (40 seconds at 6 mps). Debris was removed by centrifugation at 14000×g for 10 min. Aliquots of 10 μL of the resulting supernatant were added to wells of a microtiter plate, along with 90-μL aliquots of dilution buffer (10 mM citrate, 0.22% CTAB), followed by addition of 20 μL TMB liquid substrate system (Sigma Chemical Co.) to each sample well. The microtiter plate contents were held at room temperature until the sample with the highest concentration of MPO reached an absorbance value of 0.4 at 650 nm. The reaction was stopped by addition of 50 μL 1 M H2SO4 to each sample well, and the myeloperoxidase activity in each sample was determined from the absorbance at 405 nm. The background value from the right ear, treated only with acetone, was subtracted from that for the left ear, treated with arachidonic acid in acetone, for each animal. The percent inhibition of neutrophil influx (% Inh. MPO) by compounds of the invention was determined by comparison to animals treated identically, except that the solution administered by oral gavage was devoid of inhibitor compound.\nas §3"}},
  "note": "Structures can show the parent of a compound that is named as a salt.",
  "data": [
    {"smiles": "O=C(O)C1(c2ccc3c(c2)OC[C@H](Cc2ccc(-c4ccccc4)cc2)[C@H]3O)CCCC1", "note": "[CP-105,696]", "values": [
      {"measurement": "airway hyperresponsiveness induced by multiple antigen challenges", "setting": "[1]", "result": "reduced airway hyperresponsiveness"}
    ]},
    {"smiles": "CN(CCCOc1ccc(Cc2ccccc2)cc1)CCC(=O)O.Cl", "note": "[SC57461]", "values": [
      {"measurement": "colitis symptoms", "setting": "colitis symptoms", "result": "significantly improved"},
      {"measurement": "inhibition of ionophore-induced LTB4 production in rat peritoneum in vivo", "setting": "[2]", "result": "caused inhibition"},
      {"measurement": "inhibition of ionophore-induced LTB4 production in mouse blood ex vivo", "setting": "[3]", "result": "caused inhibition"}
    ]},
    {"smiles": "NC(=O)N1C[C@@H]2CC[C@H]1CN2Cc1ccc(Oc2nc3ncccc3s2)cc1", "note": "[Example 293, (1S,4S)-5-[4-([1,3]Thiazolo[4,5-b]pyridin-2-yloxy)benzyl]-2,5-diazabicyclo[2.2.2]octane-2-carboxamide formate]", "values": [
      {"measurement": "IC50", "setting": "[4]", "result": 10, "unit": "nM"},
      {"measurement": "IC50", "setting": "[5]", "result": 3, "unit": "nM"},
      {"measurement": "IC50", "setting": "[6]", "result": 29, "unit": "nM"}
    ]},
    {"smiles": "CC(c1cc2ccccc2s1)N(O)C(N)=O", "note": "(centres unmarked) [zileuton]", "values": [
      {"measurement": "quality of life", "setting": "[7]", "result": "significantly improve quality of life"},
      {"measurement": "pruritus", "setting": "pruritus", "result": "relieving the pruritus"},
      {"measurement": "effect in atopic dermatitis", "setting": "atopic dermatitis", "result": "beneficial effects"},
      {"measurement": "bronchial hyperresponsiveness", "setting": "[8]", "result": "reduction of bronchial hyperresponsiveness"}
    ]},
    {"smiles": "NC(=O)N1C[C@H]2C[C@@H]1CN2CCc1ccc(Oc2nc3ncccc3s2)cc1", "note": "[Example 80, (1R,4R)-5-{2-[4-([1,3]Thiazolo[4,5-b]pyridin-2-yloxy)phenyl]ethyl}-2,5-diazabicyclo[2.2.1]heptane-2-carboxamide]", "values": [
      {"measurement": "IC50", "setting": "[5]", "result": 2, "unit": "nM"},
      {"measurement": "inhibition at 30 mg/kg", "setting": "[9]", "result": 72.1, "unit": "%"},
      {"measurement": "IC50", "setting": "[6]", "result": 80, "unit": "nM"},
      {"measurement": "inhibition in vivo at 30 mg/kg", "setting": "neutrophil influx", "result": 37, "unit": "%"}
    ]},
    {"smiles": "O=C1CCCN1C1CCN(CCc2ccc(Oc3nc4ncccc4s3)cc2)CC1", "note": "[Example 46, 1-(1-{2-[4-([1,3]Thiazolo[4,5-b]pyridin-2-yloxy)phenyl]ethyl}piperidin-4-yl)pyrrolidin-2-one]", "values": [
      {"measurement": "IC50", "setting": "[5]", "result": 13, "unit": "nM"},
      {"measurement": "inhibition at 30 mg/kg", "setting": "[9]", "result": 86.5, "unit": "%"},
      {"measurement": "IC50", "setting": "[6]", "result": 130, "unit": "nM"},
      {"measurement": "inhibition in vivo at 30 mg/kg", "setting": "neutrophil influx", "result": 75.3, "unit": "%"}
    ]},
    {"smiles": "CC(=O)N[C@@H]1C[C@H]2CC[C@@H](C1)N2CCOc1ccc(Oc2nc3ncccc3s2)cc1", "note": "[Example 17, meso-N-[(3-exo)-8-{2-[4-([1,3]Thiazolo[4,5-b]pyridin-2-yloxy)phenoxy]ethyl}-8-azabicyclo[3.2.1]oct-3-yl]acetamide]", "values": [
      {"measurement": "IC50", "setting": "[5]", "result": 2, "unit": "nM"},
      {"measurement": "inhibition at 30 mg/kg", "setting": "[9]", "result": 81.5, "unit": "%"},
      {"measurement": "IC50", "setting": "[6]", "result": 25, "unit": "nM"},
      {"measurement": "inhibition in vivo at 30 mg/kg", "setting": "neutrophil influx", "result": 63.4, "unit": "%"}
    ]}
  ]
}
